Results reported in ChEMBL document CHEMBL5131515, “Identification of Pyridinyltriazine Derivatives as Potent panFGFR Inhibitors against Gatekeeper Mutants for Overcoming Drug Resistance” (J Med Chem, 2022).

Assays:
[1] = Antiproliferative activity against mouse BaF3 cells assessed as cell growth inhibition by CellTiter-Glo assay
[2] = system: BaF3; assay: Antiproliferative activity against mouse BaF3 cells harboring TEL-FGFR4 N535K mutant assessed as cell growth inhibition by CellTiter-Glo assay; type: functional
[3] = system: BaF3; assay: Antiproliferative activity against mouse BaF3 cells harboring TEL-FGFR4 V550E mutant assessed as cell growth inhibition by CellTiter-Glo assay; type: functional
[4] = system: J82; assay: Antiproliferative activity against human J82 cells harboring FGFR3 K652E mutant assessed as cell growth inhibition by CellTiter-Glo assay; type: functional
[5] = system: AN3-CA; assay: Antiproliferative activity against human AN3-CA cells harboring FGFR2 K310R/N549K mutant assessed as cell growth inhibition by CellTiter-Glo assay; type: functional
[6] = system: KMS-11; assay: Antiproliferative activity against human KMS-11 cells harboring FGFR3 Y373C mutant assessed as cell growth inhibition by CellTiter-Glo assay; type: functional
[7] = system: BaF3; assay: Antiproliferative activity against mouse BaF3 cells harboring TEL-FGFR3 assessed as cell growth inhibition by CellTiter-Glo assay; type: functional
[8] = system: BaF3; assay: cells; type: functional; settings: Mus musculus
[9] = target: Fibroblast growth factor receptor 2 (Homo sapiens, UniProt P21802, V564F)
Fibroblast growth factor receptor 2 (Homo sapiens, UniProt P21802, V564F), sequence (P21802 22-821 V564F limits assumed): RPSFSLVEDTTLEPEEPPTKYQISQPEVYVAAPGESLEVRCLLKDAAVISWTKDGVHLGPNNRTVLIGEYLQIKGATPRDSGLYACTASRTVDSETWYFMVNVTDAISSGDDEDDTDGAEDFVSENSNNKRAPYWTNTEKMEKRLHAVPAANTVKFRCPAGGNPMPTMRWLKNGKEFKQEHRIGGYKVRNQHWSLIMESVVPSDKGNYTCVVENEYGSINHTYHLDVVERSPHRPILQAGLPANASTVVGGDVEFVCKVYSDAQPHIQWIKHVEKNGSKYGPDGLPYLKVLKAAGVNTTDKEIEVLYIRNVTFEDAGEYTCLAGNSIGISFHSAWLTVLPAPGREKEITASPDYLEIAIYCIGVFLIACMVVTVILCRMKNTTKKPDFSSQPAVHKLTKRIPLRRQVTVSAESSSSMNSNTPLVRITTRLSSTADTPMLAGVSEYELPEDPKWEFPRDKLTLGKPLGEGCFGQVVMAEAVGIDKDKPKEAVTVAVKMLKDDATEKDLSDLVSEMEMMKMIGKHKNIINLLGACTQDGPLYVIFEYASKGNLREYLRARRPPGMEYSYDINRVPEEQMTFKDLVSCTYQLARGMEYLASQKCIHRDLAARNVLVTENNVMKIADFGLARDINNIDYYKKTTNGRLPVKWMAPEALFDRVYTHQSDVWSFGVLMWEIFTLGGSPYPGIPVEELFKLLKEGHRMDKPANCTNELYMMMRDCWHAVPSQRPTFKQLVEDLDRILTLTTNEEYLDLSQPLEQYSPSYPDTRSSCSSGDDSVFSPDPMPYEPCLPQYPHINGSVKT
Description: Inhibition of FGFR2 V564F mutant (unknown origin) by radiometric kinase activity assay

[10] = target: Fibroblast growth factor receptor 3 (Homo sapiens, UniProt P22607); assay: Inhibition of wild-type FGFR3 (unknown origin) by radiometric kinase activity assay
Fibroblast growth factor receptor 3 (Homo sapiens, UniProt P22607), sequence (P22607 whole entry): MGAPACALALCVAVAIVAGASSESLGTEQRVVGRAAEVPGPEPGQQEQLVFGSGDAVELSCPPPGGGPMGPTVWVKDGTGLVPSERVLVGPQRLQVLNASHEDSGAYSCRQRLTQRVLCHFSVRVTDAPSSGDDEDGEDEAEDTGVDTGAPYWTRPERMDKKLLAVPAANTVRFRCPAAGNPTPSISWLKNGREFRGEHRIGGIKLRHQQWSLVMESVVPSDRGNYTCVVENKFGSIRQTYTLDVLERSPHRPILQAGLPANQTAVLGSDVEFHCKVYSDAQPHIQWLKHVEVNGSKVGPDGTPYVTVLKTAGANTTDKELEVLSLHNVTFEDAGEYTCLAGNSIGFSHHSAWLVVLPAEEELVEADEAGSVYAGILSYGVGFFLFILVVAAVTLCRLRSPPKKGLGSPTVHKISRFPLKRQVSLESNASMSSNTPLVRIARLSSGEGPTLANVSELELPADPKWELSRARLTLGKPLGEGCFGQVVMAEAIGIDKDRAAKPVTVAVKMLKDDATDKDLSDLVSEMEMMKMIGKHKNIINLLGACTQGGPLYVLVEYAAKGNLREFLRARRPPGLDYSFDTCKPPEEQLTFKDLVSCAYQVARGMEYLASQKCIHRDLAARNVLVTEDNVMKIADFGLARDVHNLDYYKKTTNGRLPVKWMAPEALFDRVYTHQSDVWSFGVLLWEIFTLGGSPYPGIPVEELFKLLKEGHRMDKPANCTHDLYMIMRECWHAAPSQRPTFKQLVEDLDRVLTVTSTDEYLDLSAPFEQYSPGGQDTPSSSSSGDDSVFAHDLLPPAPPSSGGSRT

[11] = target: Fibroblast growth factor receptor 2 (Homo sapiens, UniProt P21802, N549H)
Fibroblast growth factor receptor 2 (Homo sapiens, UniProt P21802, N549H), sequence (P21802 22-821 N549H limits assumed): as the sequence (P21802 22-821 V564F limits assumed) above, with N528H, F543V counted along it

[12] = target: Fibroblast growth factor receptor 3 (Homo sapiens, UniProt P22607, V555M)
Fibroblast growth factor receptor 3 (Homo sapiens, UniProt P22607, V555M), sequence (P22607 23-806 V555M limits assumed): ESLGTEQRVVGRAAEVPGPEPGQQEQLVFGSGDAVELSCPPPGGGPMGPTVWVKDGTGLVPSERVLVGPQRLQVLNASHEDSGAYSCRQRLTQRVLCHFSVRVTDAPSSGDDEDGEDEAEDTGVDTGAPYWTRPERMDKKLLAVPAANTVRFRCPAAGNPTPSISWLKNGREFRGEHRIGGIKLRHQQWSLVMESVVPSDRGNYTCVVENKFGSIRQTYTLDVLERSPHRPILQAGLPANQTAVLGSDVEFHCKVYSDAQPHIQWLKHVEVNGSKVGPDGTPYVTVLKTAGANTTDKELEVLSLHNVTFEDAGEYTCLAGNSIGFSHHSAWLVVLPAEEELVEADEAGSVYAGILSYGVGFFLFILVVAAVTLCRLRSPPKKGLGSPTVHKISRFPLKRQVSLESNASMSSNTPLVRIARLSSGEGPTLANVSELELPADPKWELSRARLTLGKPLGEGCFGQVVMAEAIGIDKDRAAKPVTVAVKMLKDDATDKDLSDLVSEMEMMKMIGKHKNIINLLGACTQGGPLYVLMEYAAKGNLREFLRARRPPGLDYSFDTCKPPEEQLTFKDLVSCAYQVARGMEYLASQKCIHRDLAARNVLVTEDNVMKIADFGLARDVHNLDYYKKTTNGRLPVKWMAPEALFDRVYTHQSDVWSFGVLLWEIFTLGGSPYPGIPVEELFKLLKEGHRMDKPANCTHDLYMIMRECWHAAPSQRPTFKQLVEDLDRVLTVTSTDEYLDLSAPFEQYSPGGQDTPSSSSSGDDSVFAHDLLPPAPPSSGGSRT

[13] = target: Fibroblast growth factor receptor 2 (Homo sapiens, UniProt P21802); assay: Inhibition of wild-type FGFR2 (unknown origin) by radiometric kinase activity assay
Fibroblast growth factor receptor 2 (Homo sapiens, UniProt P21802), sequence (P21802 whole entry): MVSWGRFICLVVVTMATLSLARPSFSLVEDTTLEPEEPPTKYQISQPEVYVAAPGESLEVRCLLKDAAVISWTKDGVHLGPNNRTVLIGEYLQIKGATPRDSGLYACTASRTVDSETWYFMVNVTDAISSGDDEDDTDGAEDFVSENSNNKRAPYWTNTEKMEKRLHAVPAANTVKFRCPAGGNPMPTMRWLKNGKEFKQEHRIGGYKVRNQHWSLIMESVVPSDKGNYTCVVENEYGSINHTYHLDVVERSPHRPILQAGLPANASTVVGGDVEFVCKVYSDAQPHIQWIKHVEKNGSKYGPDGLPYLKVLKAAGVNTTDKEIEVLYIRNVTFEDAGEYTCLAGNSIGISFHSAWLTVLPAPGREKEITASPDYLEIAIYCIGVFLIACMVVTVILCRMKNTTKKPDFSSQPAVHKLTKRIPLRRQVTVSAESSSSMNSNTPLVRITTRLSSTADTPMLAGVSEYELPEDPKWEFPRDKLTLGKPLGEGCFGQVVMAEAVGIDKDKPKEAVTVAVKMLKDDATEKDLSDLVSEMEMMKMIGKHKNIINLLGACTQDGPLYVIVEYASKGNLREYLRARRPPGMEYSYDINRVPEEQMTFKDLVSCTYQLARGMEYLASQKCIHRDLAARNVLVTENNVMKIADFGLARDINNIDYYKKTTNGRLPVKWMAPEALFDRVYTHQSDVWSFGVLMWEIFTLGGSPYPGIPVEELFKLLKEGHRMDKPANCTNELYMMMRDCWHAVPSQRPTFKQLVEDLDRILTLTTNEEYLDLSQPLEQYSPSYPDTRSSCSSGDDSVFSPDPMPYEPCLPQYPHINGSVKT

[14] = target: Fibroblast growth factor receptor 4 (Homo sapiens, UniProt P22455); assay: Inhibition of wild-type FGFR4 (unknown origin) by radiometric kinase activity assay
Fibroblast growth factor receptor 4, sequence (P22455 whole entry): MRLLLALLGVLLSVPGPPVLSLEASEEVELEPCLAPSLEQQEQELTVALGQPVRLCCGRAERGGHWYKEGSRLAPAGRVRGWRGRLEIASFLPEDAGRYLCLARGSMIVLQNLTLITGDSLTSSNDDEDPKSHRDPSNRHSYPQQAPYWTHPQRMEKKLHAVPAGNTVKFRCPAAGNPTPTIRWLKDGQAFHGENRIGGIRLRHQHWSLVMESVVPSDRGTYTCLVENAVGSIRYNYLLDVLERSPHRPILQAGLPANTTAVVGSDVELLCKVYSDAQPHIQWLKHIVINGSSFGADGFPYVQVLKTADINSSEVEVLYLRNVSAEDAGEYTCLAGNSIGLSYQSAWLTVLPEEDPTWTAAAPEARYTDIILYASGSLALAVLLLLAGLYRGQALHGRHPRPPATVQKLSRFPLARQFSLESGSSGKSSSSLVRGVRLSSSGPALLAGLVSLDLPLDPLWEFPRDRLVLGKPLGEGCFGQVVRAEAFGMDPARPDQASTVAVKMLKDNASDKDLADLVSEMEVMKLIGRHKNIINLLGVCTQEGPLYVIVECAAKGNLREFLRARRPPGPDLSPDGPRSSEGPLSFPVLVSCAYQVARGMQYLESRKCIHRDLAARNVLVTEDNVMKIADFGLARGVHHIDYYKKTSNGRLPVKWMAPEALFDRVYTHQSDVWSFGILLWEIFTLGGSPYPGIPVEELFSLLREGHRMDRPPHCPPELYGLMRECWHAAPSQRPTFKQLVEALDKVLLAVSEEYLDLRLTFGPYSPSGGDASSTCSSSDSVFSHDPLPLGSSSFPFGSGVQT

[15] = target: Fibroblast growth factor receptor 3 (Homo sapiens, UniProt P22607, K650E)
Fibroblast growth factor receptor 3 (Homo sapiens, UniProt P22607, K650E), sequence (P22607 23-806 K650E limits assumed): as the sequence (P22607 23-806 V555M limits assumed) above, with M533V, K628E counted along it

[16] = system: Fibroblast growth factor receptor 3 (Homo sapiens), P22607 [V555M]; assay: Inhibition of FGFR3 V555M mutant (unknown origin) at 10 uM by radiometric kinase activity assay relative to control
Fibroblast growth factor receptor 3 (Homo sapiens), P22607 [V555M], sequence (P22607 whole entry V555M): as the sequence (P22607 whole entry) above, with V555M counted along it

[17] = system: Fibroblast growth factor receptor 2 (Homo sapiens), P21802 [V564F]; assay: Inhibition of FGFR2 V564F mutant (unknown origin) at 10 uM by radiometric kinase activity assay relative to control
Fibroblast growth factor receptor 2 (Homo sapiens), P21802 [V564F], sequence (P21802 whole entry V564F): as the sequence (P21802 whole entry) above, with V564F counted along it

[18] = target: Fibroblast growth factor receptor 3 (Homo sapiens, UniProt P22607, K650M)
Fibroblast growth factor receptor 3 (Homo sapiens, UniProt P22607, K650M), sequence (P22607 23-806 K650M limits assumed): as the sequence (P22607 23-806 V555M limits assumed) above, with M533V, K628M counted along it

| SMILES | GI50 ([1]; BaF3 cells) | GI50 [2] | GI50 [3] | GI50 [4] | GI50 [5] | GI50 [6] | GI50 [7] | GI50 [8] | IC50 [9] | IC50 [10] | IC50 [11] | IC50 [12] | IC50 [13] | IC50 [14] | IC50 [15] | inhibition [16] | inhibition [17] | IC50 [18] | GI50 ([1]; baf3) |
| --- | --- | --- | --- | --- | --- | --- | --- | --- | --- | --- | --- | --- | --- | --- | --- | --- | --- | --- | --- |
| CCN1C(=O)N(c2c(F)c(OC)cc(OC)c2F)Cc2cnc3[nH]c(CN4CCOCC4)cc3c21 [PEMIGATINIB] | > 5 µM | 4.5 µM | > 5 µM | 4.29 µM | 0.132 µM | 0.232 µM | 0.005 µM | 2.07 µM | – | – | – | – | – | – | – | – | – | – | – |
| COc1cc(N2CCN(C)CC2)ccc1Nc1ncnc(-c2cccnc2Nc2c(Cl)c(OC)cc(OC)c2Cl)n1 | 2.79 µM | – | – | 7.26 µM | 0.689 µM | 0.73 µM | 0.282 µM | 2.13 µM | 2.64 µM | 0.0203 µM | 0.0753 µM | 7.75 µM | – | – | – | – | – | – | – |
| CCN1CCN(c2ccc(Nc3cc(-c4cccnc4Nc4c(Cl)c(OC)cc(OC)c4Cl)ncn3)cc2)CC1 | 3.25 µM | 3.37 µM | 3.2 µM | 4.29 µM | 0.263 µM | 0.479 µM | 0.008 µM | 2 µM | – | 0.00286 µM | 0.00606 µM | 0.464 µM | 0.00183 µM | 0.0503 µM | 0.00855 µM | – | – | – | – |
| COc1cc(OC)c(Cl)c(Nc2ncccc2-c2ncnc(Nc3ccc(N(C)C)cc3)n2)c1Cl | > 5 µM | – | – | 14.8 µM | 0.591 µM | > 50 µM | 0.164 µM | > 5 µM | – | 0.015 µM | 0.0147 µM | – | – | – | – | < 50% | < 50% | – | – |
| COc1cc(N2C[C@@H](C)N[C@@H](C)C2)ccc1Nc1ncnc(-c2cccnc2Nc2c(Cl)c(OC)cc(OC)c2Cl)n1 | 2.73 µM | – | – | 3.33 µM | 0.818 µM | 0.872 µM | 0.286 µM | 2.71 µM | 3.56 µM | 0.0239 µM | 0.0329 µM | – | – | – | – | < 50% | – | – | – |
| COc1cc(OC)c(Cl)c(Nc2ncccc2-c2ncnc(NCCN(C)C)n2)c1Cl | > 5 µM | – | – | 11.2 µM | 1.95 µM | 3.57 µM | 4.04 µM | > 5 µM | – | 0.839 µM | 0.368 µM | – | – | – | – | < 50% | < 50% | – | – |
| COc1cc(OC)c(Cl)c(Nc2ncccc2-c2ncnc(Nc3ccc(N4CCC(O)CC4)cc3)n2)c1Cl | > 5 µM | – | – | 8.25 µM | 0.117 µM | 1.27 µM | 0.04 µM | 3.89 µM | 2.16 µM | 0.00829 µM | 0.00605 µM | 1.81 µM | – | – | – | – | – | – | – |
| CCN1CCN(c2cccc(Nc3ncnc(-c4cccnc4Nc4c(Cl)c(OC)cc(OC)c4Cl)n3)c2)CC1 | 3.63 µM | 1.69 µM | 0.994 µM | 1.11 µM | 0.085 µM | 0.19 µM | 0.018 µM | 0.686 µM | 0.578 µM | 0.00058 µM | 0.0006 µM | 0.134 µM | < 0.0005 µM | 0.101 µM | < 0.0005 µM | – | – | 0.0443 µM | – |
| COc1cc(OC)c(Cl)c(Nc2ncccc2-c2ncnc(Nc3ccc(N4CCOCC4)cc3)n2)c1Cl | > 5 µM | – | – | 22.4 µM | 1.13 µM | 12.2 µM | 0.393 µM | > 5 µM | – | 0.016 µM | 0.0377 µM | – | – | – | – | < 50% | < 50% | – | – |
| COc1cc(OC)c(Cl)c(Nc2ncccc2-c2ncnc(Nc3cnn(C)c3)n2)c1Cl | > 5 µM | – | – | 2.32 µM | 0.031 µM | 0.315 µM | 0.005 µM | 0.731 µM | 2.84 µM | 0.00241 µM | < 0.0005 µM | 0.163 µM | – | – | – | – | – | – | – |
| COc1cc(OC)c(Cl)c(Nc2ncccc2-c2ncnc(N)n2)c1Cl | > 5 µM | – | – | 6.56 µM | 0.753 µM | 3.27 µM | 0.276 µM | > 5 µM | – | 0.0112 µM | 0.0314 µM | – | – | – | – | < 50% | < 50% | – | – |
| COc1cccc(Nc2ncnc(-c3cccnc3Nc3c(Cl)c(OC)cc(OC)c3Cl)n2)c1 | > 5 µM | – | – | 4.88 µM | 0.202 µM | 0.895 µM | 0.03 µM | > 5 µM | – | 0.00981 µM | 0.00636 µM | – | – | – | – | < 50% | < 50% | – | – |
| COc1cc(OC)c(Cl)c(Nc2ncccc2-c2ncnc(Nc3ccccc3)n2)c1Cl | > 5 µM | – | – | 3.62 µM | 0.136 µM | 1.42 µM | 0.016 µM | > 5 µM | – | 0.00458 µM | 0.00251 µM | – | – | – | – | < 50% | < 50% | – | – |
| COc1cc(OC)c(Cl)c(Nc2ncccc2-c2ncnc(Nc3cnn(C4CCOCC4)c3)n2)c1Cl | > 5 µM | – | – | 6.23 µM | 0.105 µM | 1.38 µM | 0.005 µM | 3.16 µM | 2.77 µM | 0.00251 µM | 0.0138 µM | 1.17 µM | – | – | – | – | – | – | – |
| COc1cc(OC)c(Cl)c(Nc2ncccc2-c2ncnc(Nc3cnn(CCCN(C)C)c3)n2)c1Cl | 2.73 µM | – | – | 0.51 µM | 0.421 µM | 0.189 µM | 0.005 µM | 0.897 µM | 1.11 µM | 0.00119 µM | 0.00396 µM | 0.319 µM | – | – | – | – | – | – | – |
| COc1cc(OC)cc(N(CCNC(C)C)c2ccc3ncc(-c4cnn(C)c4)nc3c2)c1 [ERDAFITINIB] | – | 4.01 µM | > 5 µM | 3.8 µM | 0.048 µM | 0.39 µM | 0.005 µM | 0.761 µM | – | – | – | – | – | – | – | – | – | – | > 5 µM |
| C=CCn1cc(Nc2ncnc(-c3cccnc3Nc3c(Cl)c(OC)cc(OC)c3Cl)n2)cn1 | > 5 µM | – | – | 0.991 µM | 18.8 µM | 0.341 µM | 0.01 µM | 1.82 µM | 3.09 µM | 0.00141 µM | 0.026 µM | 1.71 µM | – | – | – | – | – | – | – |
| COc1cc(OC)c(Cl)c(Nc2ncccc2-c2ncnc(Nc3ccc(N4CCN(C(C)=O)CC4)cc3)n2)c1Cl | > 5 µM | – | – | 6.01 µM | 0.063 µM | 1.5 µM | 0.03 µM | 3.02 µM | 3.01 µM | 0.00805 µM | 0.00449 µM | 1.12 µM | – | – | – | – | – | – | – |
| COc1cc(OC)c(Cl)c(Nc2ncccc2-c2ncnc(Nc3ccc(N4CCOCC4)nc3)n2)c1Cl | > 5 µM | – | – | 11.5 µM | 0.781 µM | 2.02 µM | 0.664 µM | > 5 µM | – | 0.00862 µM | 0.00309 µM | 4.06 µM | – | – | – | – | < 50% | – | – |
